Key:
[1] = Cmax in C57BL/6 mouse at 5 mg/kg, iv or 10 mg/kg, po and measured up to 24 hrs by LC-MS/MS analysis; format: ADME, organism-based; set-up: dose 5 mg/kg, time < 24 hrs, route iv; settings: in vivo
[2] = Drug distribution in Wistar rat liver 10 mg/kg, po and measured at 1 hrs post dose by LC-MS/MS analysis; format: ADME, organism-based; settings: read-out: Ct
[3] = AUC in Wistar rat at 3 mg/kg, iv or 10 mg/kg, po and measured up to 24 hrs by LC-MS/MS analysis; format: ADME, organism-based; set-up: dose 3 mg/kg, time < 24 hrs, route iv; settings: in vivo
[4] = Drug distribution in Wistar rat adipose tissue 10 mg/kg, po and measured at 2 hrs post dose by LC-MS/MS analysis; format: ADME, organism-based; settings: read-out: Ct
hERG (KCNH2) = hERG (KCNH2) (Homo sapiens, UniProt Q12809); test: Displacement of [3H]astemizole from human ERG expressed in HEK293 cell membrane at 30 uM for 2 hrs by Radiometric displacement assay; format: toxicity; settings: HEK293 cell membranes that express hERG, probe [3H]astemizole
[5] = Tmax in Wistar rat at 3 mg/kg, iv or 10 mg/kg, po and measured up to 24 hrs by LC-MS/MS analysis; format: ADME, organism-based; settings: in vivo
[6] = Plasma protein binding in mouse; format: ADME, cell-free; settings: read-out: PPB (converted)
[7] = Drug distribution in C57BL/6 mouse adipose tissue 10 mg/kg, po and measured at 2 hrs post dose by LC-MS/MS analysis; format: ADME, organism-based; settings: read-out: Ct
[8] = Drug distribution in Wistar rat adipose tissue 10 mg/kg, po and measured at 1 hrs post dose by LC-MS/MS analysis; format: ADME, organism-based; settings: read-out: Ct
[9] = Drug distribution in C57BL/6 mouse liver 10 mg/kg, po and measured at 8 hrs post dose by LC-MS/MS analysis; format: ADME, organism-based; settings: read-out: Ct
[10] = AUC in C57BL/6 mouse at 5 mg/kg, iv or 10 mg/kg, po and measured up to 24 hrs by LC-MS/MS analysis; format: ADME, organism-based; set-up: time < 24 hrs, dose 5 mg/kg, route iv; settings: in vivo
[11] = Drug distribution in C57BL/6 mouse adipose tissue 10 mg/kg, po and measured at 8 hrs post dose by LC-MS/MS analysis; format: ADME, organism-based; settings: read-out: Ct
[12] = Tmax in C57BL/6 mouse at 5 mg/kg, iv or 10 mg/kg, po and measured up to 24 hrs by LC-MS/MS analysis; format: ADME, organism-based; settings: in vivo
[13] = Drug distribution in C57BL/6 mouse brain 10 mg/kg, po and measured at 8 hrs post dose by LC-MS/MS analysis; format: ADME, organism-based; settings: read-out: Ct
[14] = Clearance in Wistar rat at 3 mg/kg, iv or 10 mg/kg, po and measured up to 24 hrs by LC-MS/MS analysis; format: ADME, organism-based; settings: in vivo
[15] = Drug distribution in Wistar rat liver 10 mg/kg, po and measured at 8 hrs post dose by LC-MS/MS analysis; format: ADME, organism-based; settings: read-out: Ct
[16] = Metabolic stability in rat liver microsomes assessed as parent compound remaining at 1 uM and measured at 30 mins by LC-MS/MS analysis; format: ADME, Microsome; settings: read-out: Stability
[17] = Drug distribution in Wistar rat plasma 10 mg/kg, po and measured at 1 hrs post dose by LC-MS/MS analysis; format: ADME, organism-based
[18] = Metabolic stability in mouse liver microsomes assessed as parent compound remaining at 1 uM and measured at 30 mins by LC-MS/MS analysis; format: ADME, Microsome; settings: read-out: Stability
[19] = Half life in C57BL/6 mouse at 5 mg/kg, iv or 10 mg/kg, po and measured up to 24 hrs by LC-MS/MS analysis; format: ADME, organism-based; settings: in vivo
[20] = Apparent permeability across apical to basolateral side in MDCK cells at 2.5 uM for 90 mins; format: ADME, cell-based, Canis lupus familiaris; settings: dog
[21] = Drug distribution in C57BL/6 mouse liver 10 mg/kg, po and measured at 2 hrs post dose by LC-MS/MS analysis; format: ADME, organism-based; settings: read-out: Ct
[22] = Drug distribution in C57BL/6 mouse plasma 10 mg/kg, po and measured at 2 hrs post dose by LC-MS/MS analysis; format: ADME, organism-based
[23] = Oral bioavailability in Wistar rat at 10 mg/kg or 3 mg/kg, iv and measured up to 24 hrs by LC-MS/MS analysis; format: ADME, organism-based; settings: in vivo
[24] = Drug distribution in Wistar rat adipose tissue 10 mg/kg, po and measured at 8 hrs post dose by LC-MS/MS analysis; format: ADME, organism-based; settings: read-out: Ct
[25] = Drug distribution in C57BL/6 mouse brain 10 mg/kg, po and measured at 1 hrs post dose by LC-MS/MS analysis; format: ADME, organism-based; settings: read-out: Ct
[26] = Plasma protein binding in rat; format: ADME, cell-free; settings: read-out: PPB
[27] = Metabolic stability in human liver microsomes assessed as parent compound remaining at 1 uM and measured at 30 mins by LC-MS/MS analysis; format: ADME, Microsome; settings: read-out: Stability
[28] = Volume of distribution at steady state in Wistar rat at 3 mg/kg, iv or 10 mg/kg, po and measured up to 24 hrs by LC-MS/MS analysis; format: ADME, organism-based; settings: in vivo, read-out: Vdss
[29] = Drug distribution in C57BL/6 mouse skeletal muscle 10 mg/kg, po and measured at 8 hrs post dose by LC-MS/MS analysis; format: ADME, organism-based, Skeletal muscle tissue; settings: read-out: Ct
[30] = Oral bioavailability in C57BL/6 mouse 10 mg/kg or 5 mg/kg, iv and measured up to 24 hrs by LC-MS/MS analysis; format: ADME, organism-based; settings: in vivo
[31] = Drug distribution in C57BL/6 mouse liver 10 mg/kg, po and measured at 1 hrs post dose by LC-MS/MS analysis; format: ADME, organism-based; settings: read-out: Ct
[32] = Drug distribution in C57BL/6 mouse plasma 10 mg/kg, po and measured at 8 hrs post dose by LC-MS/MS analysis; format: ADME, organism-based
[33] = Drug distribution in C57BL/6 mouse skeletal muscle 10 mg/kg, po and measured at 2 hrs post dose by LC-MS/MS analysis; format: ADME, organism-based, Skeletal muscle tissue; settings: read-out: Ct
[34] = Drug distribution in C57BL/6 mouse skeletal muscle 10 mg/kg, po and measured at 1 hrs post dose by LC-MS/MS analysis; format: ADME, organism-based, Skeletal muscle tissue; settings: read-out: Ct
[35] = Cmax in Wistar rat at 3 mg/kg, iv or 10 mg/kg, po and measured up to 24 hrs by LC-MS/MS analysis; format: ADME, organism-based; set-up: dose 3 mg/kg, time < 24 hrs, route iv; settings: in vivo
[36] = Drug distribution in C57BL/6 mouse brain 10 mg/kg, po and measured at 2 hrs post dose by LC-MS/MS analysis; format: ADME, organism-based; settings: read-out: Ct
[37] = Drug distribution in C57BL/6 mouse adipose tissue 10 mg/kg, po and measured at 1 hrs post dose by LC-MS/MS analysis; format: ADME, organism-based; settings: read-out: Ct
[38] = Half life in Wistar rat at 3 mg/kg, iv or 10 mg/kg, po and measured up to 24 hrs by LC-MS/MS analysis; format: ADME, organism-based; settings: in vivo
[39] = Drug distribution in Wistar rat plasma 10 mg/kg, po and measured at 2 hrs post dose by LC-MS/MS analysis; format: ADME, organism-based
[40] = Volume of distribution at steady state in C57BL/6 mouse at 5 mg/kg, iv or 10 mg/kg, po and measured up to 24 hrs by LC-MS/MS analysis; format: ADME, organism-based; settings: in vivo, read-out: Vdss
[41] = Drug distribution in C57BL/6 mouse plasma 10 mg/kg, po and measured at 1 hrs post dose by LC-MS/MS analysis; format: ADME, organism-based
[42] = Drug distribution in Wistar rat plasma 10 mg/kg, po and measured at 8 hrs post dose by LC-MS/MS analysis; format: ADME, organism-based
[43] = Clearance in C57BL/6 mouse at 5 mg/kg, iv r 10 mg/kg, po and measured up to 24 hrs by LC-MS/MS analysis; format: ADME, organism-based; settings: in vivo
[44] = Drug distribution in Wistar rat liver 10 mg/kg, po and measured at 2 hrs post dose by LC-MS/MS analysis; format: ADME, organism-based; settings: read-out: Ct

Sequence of hERG (KCNH2) (Q12809 whole entry): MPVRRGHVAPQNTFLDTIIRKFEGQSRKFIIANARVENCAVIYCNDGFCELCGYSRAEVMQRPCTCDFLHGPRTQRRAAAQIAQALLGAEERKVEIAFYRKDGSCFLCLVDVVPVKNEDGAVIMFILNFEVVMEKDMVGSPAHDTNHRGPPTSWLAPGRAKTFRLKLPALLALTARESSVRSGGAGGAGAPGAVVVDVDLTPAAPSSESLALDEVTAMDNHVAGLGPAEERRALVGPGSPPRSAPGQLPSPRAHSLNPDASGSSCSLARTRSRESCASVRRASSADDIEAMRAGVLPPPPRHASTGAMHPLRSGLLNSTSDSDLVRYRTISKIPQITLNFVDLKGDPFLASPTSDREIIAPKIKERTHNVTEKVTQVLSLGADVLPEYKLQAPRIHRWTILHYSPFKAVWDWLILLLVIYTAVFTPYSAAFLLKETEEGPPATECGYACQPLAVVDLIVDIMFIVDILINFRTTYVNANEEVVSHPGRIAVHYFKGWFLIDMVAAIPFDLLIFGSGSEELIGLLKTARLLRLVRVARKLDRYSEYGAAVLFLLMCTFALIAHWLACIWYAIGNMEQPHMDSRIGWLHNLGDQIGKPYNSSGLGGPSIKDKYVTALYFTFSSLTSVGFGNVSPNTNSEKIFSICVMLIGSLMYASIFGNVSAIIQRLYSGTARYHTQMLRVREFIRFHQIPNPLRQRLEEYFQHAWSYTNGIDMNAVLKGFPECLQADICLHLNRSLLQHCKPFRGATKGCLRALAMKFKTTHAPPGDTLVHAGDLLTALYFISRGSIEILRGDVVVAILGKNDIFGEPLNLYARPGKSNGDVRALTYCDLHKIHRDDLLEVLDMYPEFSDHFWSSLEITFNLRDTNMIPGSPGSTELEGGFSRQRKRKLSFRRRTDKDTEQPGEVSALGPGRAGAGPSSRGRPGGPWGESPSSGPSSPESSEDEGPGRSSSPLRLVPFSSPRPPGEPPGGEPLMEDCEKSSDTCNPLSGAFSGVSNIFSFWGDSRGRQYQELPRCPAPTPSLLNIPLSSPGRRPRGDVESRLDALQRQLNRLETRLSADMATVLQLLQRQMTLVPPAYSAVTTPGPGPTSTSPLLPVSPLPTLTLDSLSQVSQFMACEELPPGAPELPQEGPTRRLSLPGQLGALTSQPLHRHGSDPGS

O=C(Nc1ccc(N2CCC3(CC2)CC(C(=O)O)C3)nc1)c1nnc(Nc2ccc(F)c(F)c2)o1
Cmax [1]: 4500 nM | concentration at 1 h [2]: 105000 nM | AUC at 24 h [3]: 47 µM·h | concentration at 2 h [4]: 2500 nM | inhibition at 2 h, 30 µM (hERG (KCNH2)): 22% | Tmax [5]: 30 min | fraction unbound [6]: 0.02 | concentration at 2 h [7]: 140 nM | concentration at 1 h [8]: 1890 nM | concentration at 8 h [9]: 5300 nM | AUC at 24 h [10]: 2.9 µM·h | concentration at 8 h [11]: 80 nM | Tmax [12]: 30 min | concentration at 8 h [13]: 110 nM | clearance [14]: 2.3 mL/min/kg | concentration at 8 h [15]: 32000 nM | remaining at 0.5 h, 1 µM [16]: 92% | concentration at 1 h [17]: 37000 nM | remaining at 0.5 h, 1 µM [18]: 94% | half-life [19]: 60 min | Papp A→B at 1.5 h, 2.5 µM [20]: 2.8 ×10⁻⁶ cm/s | concentration at 2 h [21]: 96000 nM | concentration at 2 h [22]: 1160 nM | bioavailability [23]: 92% | concentration at 8 h [24]: 340 nM | concentration at 1 h [25]: 360 nM | fraction unbound [26]: 0.01 | remaining at 0.5 h, 1 µM [27]: 89% | Vd [28]: 0.3 L/kg | concentration at 8 h [29]: 20 nM | bioavailability [30]: 97% | concentration at 1 h [31]: 153000 nM | concentration at 8 h [32]: 40 nM | concentration at 2 h [33]: 180 nM | concentration at 1 h [34]: 170 nM | Cmax [35]: 57000 nM | concentration at 2 h [36]: 260 nM | concentration at 1 h [37]: 270 nM | half-life [38]: 210 min | concentration at 2 h [39]: 47000 nM | Vd [40]: 2.5 L/kg | concentration at 1 h [41]: 1900 nM | concentration at 8 h [42]: 4000 nM | clearance [43]: 58 mL/min/kg | concentration at 2 h [44]: 72000 nM
